From ChEMBL document CHEMBL3244418, “Synthesis and central nervous system activity of quinazolones related to 2-methyl-3-(o-tolyl)-4(3H)-quinazolone (methaqualone)” (J Med Chem, 1977)

Assays:
Type in all cases: functional
[1] = tested on: Mus musculus; experiment: Hypnotic activity in ip dosed CFLP mouse assessed as loss of righting reflex
[2] = tested on: Mus musculus; experiment: […] activity in po dosed CFLP mouse assessed as inhibition of benzoquinone-induced writhing
[3] = tested on: Mus musculus; experiment: Anticonvulsant activity in ip dosed CFLP mouse assessed as inhibition of pentylenetetrazole-induced seizure
[4] = tested on: Mus musculus; experiment: Hypnotic activity in ip dosed CFLP mouse after 30 mins by rotary drum test; conditions: 0.5 h
[5] = tested on: Mus musculus; experiment: Anticonvulsant activity in ip dosed CFLP mouse assessed as inhibition of maximum electroshock-induced seizure

Br.Cc1ccc([N+](=O)[O-])cc1-n1c(CSC(=N)N)nc2ccccc2c1=O
ED50 [1]: > 400 mg/kg
ED50 [2]: > 200 mg/kg

Br.N=C(N)SCc1nc2ccccc2c(=O)n1-c1ccccc1
ED50 [1]: 200 mg/kg
ED50 [3]: > 50 mg/kg
ED50 [4]: 42 mg/kg
ED50 [5]: 53 mg/kg

Cc1ccccc1-n1c(CSC(N)=O)nc2ccccc2c1=O.Cl
ED50 [1]: 35 mg/kg
ED50 [4]: 19 mg/kg
ED50 [5]: 34 mg/kg
ED50 [2]: 200 mg/kg

Cc1ccccc1-n1c(C(F)F)nc2ccccc2c1=O
ED50 [1]: > 400 mg/kg
ED50 [3]: 50 mg/kg
ED50 [4]: 100 mg/kg
ED50 [5]: > 100 mg/kg

Br.CCCC/N=C(\NCCCC)SCc1nc2ccccc2c(=O)n1-c1ccccc1C
ED50 [1]: > 100 mg/kg
ED50 [3]: > 40 mg/kg
ED50 [4]: 40 mg/kg
ED50 [5]: > 40 mg/kg
ED50 [2]: 200 mg/kg

Br.Cc1ccccc1-n1c(CSC2=NCCN2)nc2ccccc2c1=O
ED50 [1]: 60 mg/kg
ED50 [3]: 24 mg/kg
ED50 [4]: 42 mg/kg
ED50 [5]: 44 mg/kg
ED50 [2]: > 50 mg/kg

Cc1ccccc1-n1c(C(F)(F)F)nc2ccccc2c1=O
ED50 [1]: > 400 mg/kg
ED50 [3]: > 200 mg/kg
ED50 [4]: > 200 mg/kg
ED50 [5]: > 200 mg/kg
ED50 [2]: > 200 mg/kg

Br.C/N=C(\NC)SCc1nc2ccccc2c(=O)n1-c1cc([N+](=O)[O-])ccc1C
ED50 [1]: > 50 mg/kg
ED50 [3]: > 10 mg/kg
ED50 [4]: > 10 mg/kg
ED50 [5]: > 10 mg/kg
ED50 [2]: > 10 mg/kg

Br.Cc1c(Cl)cccc1-n1c(CSC(=N)N)nc2ccccc2c1=O
ED50 [1]: 400 mg/kg
ED50 [4]: 57 mg/kg
ED50 [5]: 42 mg/kg
ED50 [2]: 200 mg/kg

COCc1nc2ccccc2c(=O)n1-c1ccccc1C
ED50 [1]: 300 mg/kg
ED50 [3]: 100 mg/kg
ED50 [4]: 22 mg/kg
ED50 [5]: 26 mg/kg
ED50 [2]: 100 mg/kg

Br.N=C(N)SCc1nc2ccccc2c(=O)n1-c1ccccc1F
ED50 [1]: 400 mg/kg
ED50 [3]: 75 mg/kg
ED50 [4]: 43 mg/kg
ED50 [5]: 38 mg/kg
ED50 [2]: 100 mg/kg

Cc1ccccc1-n1c(COC(=O)CCC(=O)O)nc2ccccc2c1=O
ED50 [1]: > 400 mg/kg
ED50 [3]: 150 mg/kg
ED50 [4]: > 200 mg/kg
ED50 [5]: > 200 mg/kg
ED50 [2]: > 200 mg/kg

Br.Cc1ccc([N+](=O)[O-])cc1-n1c(CSC2=NCCN2)nc2ccccc2c1=O
ED50 [1]: > 400 mg/kg
ED50 [3]: 150 mg/kg
ED50 [4]: 86 mg/kg
ED50 [5]: 100 mg/kg
ED50 [2]: > 200 mg/kg

Br.O=c1c2ccccc2nc(CSC2=NCCN2)n1-c1ccccc1Cl
ED50 [1]: 50 mg/kg
ED50 [3]: 25 mg/kg
ED50 [4]: 12 mg/kg
ED50 [5]: 18 mg/kg

Cc1ccccc1-n1c(CBr)nc2ccccc2c1=O
ED50 [1]: > 200 mg/kg
ED50 [4]: > 200 mg/kg
ED50 [5]: > 200 mg/kg
ED50 [2]: > 150 mg/kg

Br.C/N=C(\NC)SCc1nc2ccccc2c(=O)n1-c1ccccc1C
ED50 [1]: 100 mg/kg
ED50 [3]: 23 mg/kg
ED50 [4]: 32 mg/kg
ED50 [5]: 25 mg/kg
ED50 [2]: 51 mg/kg

Cc1ccccc1-n1c(C(Br)Br)nc2ccccc2c1=O
ED50 [1]: > 800 mg/kg
ED50 [3]: > 200 mg/kg
ED50 [4]: > 200 mg/kg
ED50 [5]: > 200 mg/kg
ED50 [2]: > 400 mg/kg

CC(=O)OCc1nc2ccccc2c(=O)n1-c1ccccc1C
ED50 [1]: > 400 mg/kg
ED50 [3]: 150 mg/kg
ED50 [4]: 155 mg/kg
ED50 [5]: 120 mg/kg
ED50 [2]: 200 mg/kg

Cc1ccccc1-n1c(C)nc2ccccc2c1=O [METHAQUALONE]
ED50 [1]: 96 mg/kg
ED50 [3]: 14 mg/kg
ED50 [4]: 30 mg/kg
ED50 [5]: 48 mg/kg
ED50 [2]: 36 mg/kg

Cc1ccccc1-n1c(CI)nc2ccccc2c1=O
ED50 [1]: > 400 mg/kg
ED50 [4]: > 200 mg/kg
ED50 [5]: > 200 mg/kg
